In Sander's compilation of Henry's law constants (doi:10.1016/s0378-3812(02)00087-0):

Assay: Henry solubility constant Hcp at 303 K (mol/(m3 Pa))
Conditions: reference: Hovorka et al. (2002)

Question: With `CCOCCOC(C)=O` [2-ethoxyethyl ethanoate] as the compound, how does the “Henry solubility constant Hcp at 303 K” value read?
Answer: 3

Question: For `COCCOC(C)=O` [2-methoxyethyl ethanoate], which “Henry solubility constant Hcp at 303 K” value is on record?
Answer: 3

Question: Which “Henry solubility constant Hcp at 303 K” value does the source give for `C=CC#N` [2-propenenitrile] here?
Answer: 0.076

Question: For `COC(=O)CC(C)=O` [3-oxobutanoic acid, methyl ester], which “Henry solubility constant Hcp at 303 K” value is on record?
Answer: 6.4

Question: For `COCC(=O)OC` [methyl methoxyacetate], which “Henry solubility constant Hcp at 303 K” value is on record?
Answer: 2.5

Assay: Henry solubility constant Hcp at 298.15 K (mol/(m3 Pa))
Conditions: reference: Hovorka et al. (2002)

Question: For `CC(C)CO` [2-methyl-1-propanol], which “Henry solubility constant Hcp” value is on record?
Answer: 0.67

Question: For `O=C1CCCCC1` [cyclohexanone], which “Henry solubility constant Hcp” value is on record?
Answer: 0.86

Question: For `OC1CCCC1` [cyclopentanol], which “Henry solubility constant Hcp” value is on record?
Answer: 2.2

Question: Which “Henry solubility constant Hcp” value does the source give for `O=C1CCCC1` [cyclopentanone] here?
Answer: 0.82

Question: Which “Henry solubility constant Hcp” value does the source give for `CC#N` [ethanenitrile] here?
Answer: 0.32

Question: With `COC(C)=O` [methyl ethanoate] as the compound, how does the “Henry solubility constant Hcp” value read?
Answer: 0.083
